Test results as given in patent US20090215896A1, “REELIN DEFICIENCY OR DYSFUNCTION AND METHODS RELATED THERETO” (MARTEK BIOSCIENCES CORPORATION, priority 2004, published 2009).

Test system: Reelin-deficient mice (B6C3Fe a/a-Reln<rl>/J)
Test: Reelin feeding study: number of offspring with reeler phenotype per diet group
Type: in vivo
Settings: DHA to pregnant and lactating dam and to pups after weaning, vs DHA Deficient Diet; P=0.04
Text: In the following experiment, the inventors tested whether LC-PUFA dietary enrichment (DHA) for mice lacking one or more normal reelin genes will correct Reelin histopathology/symptoms and will normalize the fatty acid profiles observed in Reelin-deficient mice. Specifically, the inventors evaluated whether dietary enrichment of long-chain polyunsaturated fatty acids (DHA) will correct or modulate Reelin histopathology/symptoms in Reelin-deficient mice.
Materials and Methods: The Reelin feeding study was sponsored by Martek Biosciences Corporation and initiated at Jackson Labs, Bar Harbor, Me. (Stock used: 300235 B6C3Fe a/a-Reln/J). Heterozygous females were mated with heterozygous males and received one of two experimental diets: a DHA DEFICIENT DIET (0% DHA by weight; 0.14% alpha linolenic acid by weight), or a DHA ADEQUATE DIET (0.462% DHA by weight, with 0.115% alpha linolenic acid by weight). The females continued to receive the specific diet throughout pregnancy and lactation. Homozygous, heterozygous, and wild-type pups born to pregnant females were placed on the same specific maternal diet at weaning. The number of reeler mice was recorded within each diet group. […] Pups were sacrificed at between 8 and 14 weeks of age and tissues were collected for fatty acid analysis.

CCC=CCC=CCC=CCC=CCC=CCC=CCCC(=O)O [DHA, 4,7,10,13,16,19-docosahexaenoic acid]
reduction of the incidence of male reeler animals: ~3 fold
